Test results as given in patent US20230365568A1, “PLK1 POLO BOX DOMAIN INHIBITORS AND METHOD OF TREATING CANCER” (The United States of America,as represented by the …, priority 2020, published 2023).
Where two headings read alike, the source gives them in different places. Marks after values point to notes of the source that are not given here.

Assays:
[1] = system: multiple myeloma-derived L363 cells; experiment: MTS cell proliferation assay in L363 cells; type: cell-based; details: for GI50: read-out: Cell efficacy, GI50 ± sd
Procedure: MTS Assay. […] 96™ AQueous One Solution Cell Proliferation Assay (MTS) kit (Promega, WI). Briefly, asynchronously growing L363 cells cultured in a 96-well plate were treated with the indicated compounds for 48 h.

HeLa cells = experiment: Mitotic arrest and antiproliferation in HeLa cells (DAPI staining, cell counts); type: cell-based; details: for population of rounded cells with mitotically arrested or apoptotic chromosome morphologies: 25 μM, 12 h; for induction of mitotic arrest (rounded cells with apoptotic or aberrant chromosome morphologies): 100 μM
Procedure: HeLa cells were cultured as recommended by the American Type Culture Collection (ATCC). […] Immunostaining was carried out using anti-Plk1 (Santa Cruz Biotechnology, Santa Cruz, CA), anti-Cep63 (MilliporeSigma), anti-CREST (Antibodies Incorp, Davis, CA), and anti-α-tubulin (Sigma, St. Louis, MO) antibodies.
(§1) To quantify fluorescence signal intensities, images were acquired under the same settings and the images obtained after the maximum-intensity projection of z-stacks were analyzed using the Zeiss ZEN v2.1 software (Carl Zeiss Microscopy, LLC). All the quantifications were performed with randomly chosen fields from at least three independent experiments. All values are given as mean±s. D. P values were calculated by unpaired t test from the mean data of each group in Graph Pad Prism (***P<0.001). The statistical details including the definitions and value of n (e.g., number of experimental replicates, cells, etc.) And standard deviations are provided herein.

full-length human Plk1 = full-length human Plk1 (Homo sapiens (Human), UniProt P53350); experiment: ELISA-based Plk1 PBD-binding inhibition assay; details: Plk1 PBD; n = 3 unless noted
Procedure: An ELISA-based PBD-binding inhibition assay was performed essentially as described previously. […] The wells were washed once with PBS+0.05% Tween20 (PBST) and incubated with 200 μl of PBS plus 1% BSA (blocking buffer) for 1 h to prevent non-specific binding. HEK293A lysates expressing HA-EGFP-Plk1 were prepared in a TBSN [20 mM Tris-HCl (pH 8.0), 150 mM NaCl, 0.5% NP-40, 5 mM EGTA, 2 mM MgCl2, 1.5 mM EDTA, and protease inhibitor cocktail (Roche)]+20% DMSO buffer (˜20 μg total lysates in 100 μl buffer), mixed with the indicated amount of the competitors (p-T78 peptide and its derivative compounds) for 30 min, provided onto the biotinylated peptide-coated ELISA wells, and then incubated with constant rocking for 1 h at 25° C. Following the incubation, ELISA plates were washed 5 times with PBST. To detect bound HA-EGFP-Plk1, the plates were probed for 2 h with 100 μl/well of anti-HA antibody at a concentration of 0.5 μg/ml in the blocking buffer and then washed 5 times. The plates were further probed for 1 h with 100 μl/well of HRP-conjugated secondary antibody (GE Healthcare) at a 1:1,000 dilution in the blocking buffer. The plates were washed 5 times with PBST and incubated with 100 μl/well of 3,3′,5,5′-tetramethylbenzidine solution (Sigma-Aldrich, St. Louis, MO) as substrate until a desired absorbance was reached. The reactions were stopped by the addition of 100 μl/well of stop solution (Cell Signaling Technology, Danvers, MA). The optical density (O.D.) was measured at 450 nm by using a Perkin-Elmer Enspire Multimode Plate reader (PerkinElmer, Inc., Boston, MA). Data obtained from more than three independent experiments were analyzed by GraphPad (San Diego, CA) Prism software version 7.
ELISA-based PBD-binding Inhibition Assay. […] The reaction products were measured at 450 nm by using a Perkin-Elmer Enspire Multimode Plate reader (PerkinElmer, Inc., Boston, MA). Data obtained from more than three independent experiments were analyzed by GraphPad (San Diego, CA) Prism software version 7.

[2] = Stability in human liver microsomes; type: in vitro ADME; details: for half-life: read-out: t1/2 Human LM
[3] = Stability in mouse liver microsomes; type: in vitro ADME; details: for half-life: read-out: t1/2 Mouse LM
[4] = Stability in rat liver microsomes (Table 10); type: in vitro ADME; details: for half-life: read-out: t1/2 Rat LM
[5] = Stability in human cytosol; type: in vitro ADME; details: for half-life: read-out: t1/2 Human cytosol
[6] = Stability in mouse cytosol; type: in vitro ADME; details: for half-life: read-out: t1/2 Mouse cytosol
Stability in rat cytosol = type: in vitro ADME; details: for half-life: read-out: t1/2 Rat cytosol
[7] = Microsomal metabolic stability, rat liver microsomes (RLM)
[8] = system: Plk1 localization to centrosomes and kinetochores in HeLa cells; experiment: Immunostaining of Plk1 localization and spindle morphology in HeLa cells; type: cell-based; details: 25 μM, 2 h
Procedure: HeLa cells were cultured as recommended by the American Type Culture Collection (ATCC). Asynchronously growing cells were treated with control DMSO or the indicated concentration of 143. To reveal chromosome morphologies, cells were treated with 4′,6-diamidino-2-phenylindole (DAPI), fixed, and subjected to confocal microscopy. Immunostaining was carried out using anti-Plk1 (Santa Cruz Biotechnology, Santa Cruz, CA), anti-Cep63 (MilliporeSigma), anti-CREST (Antibodies Incorp, Davis, CA), and anti-α-tubulin (Sigma, St. Louis, MO) antibodies. Confocal images were acquired using a Zeiss LSM780 equipped with a plan-apochromat 63× (N.A. 1.4) oil-immersion objective lens, 34-channel GaAsP spectral detector (Carl Zeiss Microscopy, LLC.), and 8-bit, 0.5-μm z-steps.
as §1
To directly examine whether the observed mitotic arrest was the consequence of inhibiting Plk1 PBD function, immunostaining analysis was carried out to determine the ability of intracellular Plk1 to localize to centrosomes and kinetochores, an event that requires PBD-mediated protein-protein interaction (Lee et al., Trends Pharmacol. Sci. 36, 858-877 (2015); and Elia et al., Cell 115, 83-95 (2003)). […] A short treatment time (i.e., 2 h), which was intended to minimize a potential indirect effect of these inhibitors, was sufficient to delocalize greater than 70% of Plk1 signals from centrosomes (marked by anti-Cep63 signals) and 90% of those from kinetochores (marked by anti-CREST signals).

[9] = Homo sapiens, L-363, 48 h treatment

full-length human Plk1, sequence (P53350 whole entry): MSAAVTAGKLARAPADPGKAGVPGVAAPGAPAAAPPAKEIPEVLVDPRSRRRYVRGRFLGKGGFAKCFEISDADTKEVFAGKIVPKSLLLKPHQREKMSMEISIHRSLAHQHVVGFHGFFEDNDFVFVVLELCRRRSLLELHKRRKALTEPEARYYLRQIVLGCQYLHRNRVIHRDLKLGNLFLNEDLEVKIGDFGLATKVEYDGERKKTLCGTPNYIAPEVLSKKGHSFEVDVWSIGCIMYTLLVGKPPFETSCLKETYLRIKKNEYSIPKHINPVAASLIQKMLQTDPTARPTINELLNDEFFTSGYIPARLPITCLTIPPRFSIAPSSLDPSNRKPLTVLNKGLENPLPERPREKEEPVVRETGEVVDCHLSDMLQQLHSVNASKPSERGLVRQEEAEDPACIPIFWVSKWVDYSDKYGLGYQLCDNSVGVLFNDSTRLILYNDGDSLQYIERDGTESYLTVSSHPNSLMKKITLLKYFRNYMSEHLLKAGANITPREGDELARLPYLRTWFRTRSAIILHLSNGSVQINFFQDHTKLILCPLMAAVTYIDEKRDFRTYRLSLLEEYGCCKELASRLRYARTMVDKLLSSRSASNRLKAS

CCCn1c(=O)c2sc(C)cc2n2c(Sc3c(C(F)(F)F)ncn3C)nnc12 [76 (NCK174), 7-methyl-1-((1-methyl-4-(trifluoromethyl)-1H-imidazol-5-yl)thio)-4-propylthieno[2,3-e][1,2,4]triazolo[4,3-a]pyrimidin-5(4H)-one]
GI50 [1, 9]: > 400 µM

CCCn1c(=O)c2sc(C)cc2n2c(Sc3c(S(N)(=O)=O)ncn3C)nnc12 [77 (NCK175), 1-methyl-5-((7-methyl-5-oxo-4-propyl-4,5-dihydrothieno[2,3-e][1,2,4]triazolo[4,3-a]pyrimidin-1-yl)thio)-1H-imidazole-4-sulfonamide]
GI50 [1, 9]: > 400 µM

Cc1cc2c(s1)c(=O)n(CC1CC1)c1nnc(Sc3c([N+](=O)[O-])ncn3C)n21 [85 (NCK182), 4-(cyclopropylmethyl)-7-methyl-1-((1-methyl-4-nitro-1H-imidazol-5-yl)thio)thieno[2,3-e][1,2,4]triazolo[4,3-a]pyrimidin-5(4H)-one]
GI50 [1, 9]: 3.11 µM

CC(=O)Nc1ccc2c(c1)c(=O)n(CCc1ccccc1)c1n[nH]c(=S)n21 [Example 14, N-(5-oxo-4-phenethyl-1-thioxo-1,2,4,5-tetrahydro-[1,2,4]triazolo[4,3-a]quinazolin-7-yl)acetamide]
population of rounded cells with mitotically arrested or apoptotic chromosome morphologies (HeLa cells): failed to show any of these phenotypes
Cell efficacy, GI50 ± sd (μM) ([1]; 48 h treatment): failed to induce any a detectable level of cellular response

O=c1c2cc(F)ccc2n2c(=S)[nH]nc2n1CCc1ccc(Cl)cc1 [Example 43, 4-(4-chlorophenethyl)-7-fluoro-1-thioxo-2,4-dihydro-[1,2,4]triazolo[4,3-a]quinazolin-5(1H)-one]
population of rounded cells with mitotically arrested or apoptotic chromosome morphologies (HeLa cells): failed to show any of these phenotypes
Cell efficacy, GI50 ± sd (μM) ([1]; 48 h treatment): failed to induce any a detectable level of cellular response

CCCn1c(=O)c2ccccc2n2c(=S)[nH]nc12 [compound 21, 4-propyl-1-thioxo-2,4-dihydro-[1,2,4]triazolo[4,3-a]quinazolin-5(1H)-one]
IC50 (full-length human Plk1): 1.03 ± 0.08 µM
induction of mitotic arrest (rounded cells with apoptotic or aberrant chromosome morphologies) (HeLa cells): lacked a detectable level of cellular response
half-life [2]: > 2 h
half-life [3]: > 2 h
half-life [4]: > 2 h
half-life [5]: > 2 h
half-life [6]: > 2 h
half-life (Stability in rat cytosol): > 2 h
Solub. (Aqueous solubility; aqueous solubility): 21.3 µg/mL
half-life ([7]; rat liver microsomes): > 0.5 h

CCCn1c(=O)c2cc(F)ccc2n2c(=S)[nH]nc12 [compound 64, 7-fluoro-4-propyl-1-thioxo-2,4-dihydro-[1,2,4]triazolo[4,3-a]quinazolin-5(1H)-one]
induction of mitotic arrest (rounded cells with apoptotic or aberrant chromosome morphologies) (HeLa cells): lacked a detectable level of cellular response
half-life [2]: > 2 h
half-life [3]: > 2 h
half-life [4]: 2 h
half-life [5]: > 2 h
half-life [6]: > 2 h
half-life (Stability in rat cytosol): > 2 h
PAMPA (PAMPA permeability): 195 ×10⁻⁶ cm/s
Solub. (Aqueous solubility; aqueous solubility): >28 µg/mL
t1/2 (min, RLM) ([7]; rat liver microsomes): >30 min

NCCCn1c(=O)c2cc(F)ccc2n2c(=S)[nH]nc12 [compound 68]
t1/2 Human LM [2]: >2 h
t1/2 Mouse LM [3]: >2 h
t1/2 Rat LM [4]: 1.7728 h
t1/2 Human cytosol [5]: >2 h
t1/2 Mouse cytosol [6]: >2 h
t1/2 Rat cytosol (Stability in rat cytosol): >2 h
Solub. (Aqueous solubility; Free base): 27 µg/mL
Solub. (Aqueous solubility; TFA salt): > 43 µg/mL
t1/2 (min, RLM) ([7]; Free base): >30^c >30^d min
t1/2 (min, RLM) ([7]; TFA salt): >30^c >30^d min

CS(=O)(=O)NCCn1c(=O)c2cc(F)ccc2n2c(=S)[nH]nc12 [compound 75]
population of rounded cells with mitotically arrested or apoptotic chromosome morphologies (HeLa cells): approximately 60%
Plk1 signals delocalized from centrosomes [8]: greater than 70%
Plk1 signals delocalized from kinetochores [8]: > 90%
effect on Plk1 localization [8]: greatly diminished Plk1 signal intensities at both centrosomes and kinetochores
GI50 ([1]; 48 h treatment): 4.1 µM
Solub. (Aqueous solubility; aqueous solubility): >53 µg/mL
t1/2 (min, RLM) ([7]; rat liver microsomes): >30 min

C[C@H]1C[C@@H]1n1c(=O)c2cc(F)ccc2n2c(=S)[nH]nc12 [compound 80]
t1/2 Human LM [2]: 0.8472 h
t1/2 Mouse LM [3]: 1.7515 h
t1/2 Rat LM [4]: >2 h
t1/2 Human cytosol [5]: >2 h
t1/2 Mouse cytosol [6]: >2 h
t1/2 Rat cytosol (Stability in rat cytosol): >2 h
PAMPA: 188 ×10⁻⁶ cm/s
Solub. (Aqueous solubility; aqueous solubility): 13.2 µg/mL
t1/2 (min, RLM) ([7]; rat liver microsomes): >30 min

O=c1c2cc(F)ccc2n2c(=S)[nH]nc2n1CCc1ccncc1 [compound 85]
population of rounded cells with mitotically arrested or apoptotic chromosome morphologies (HeLa cells): induced Plk1 delocalization and mitotic arrest at a level similar to those of compound 75
GI50 ([1]; 48 h treatment): 3.11 µM
Solub. (Aqueous solubility; aqueous solubility): 10.9 µg/mL
t1/2 (min, RLM) ([7]; rat liver microsomes): >30 min

CCCn1c(=O)c2cccc(F)c2n2c(=S)[nH]nc12 [compound 139, 9-fluoro-4-propyl-1-thioxo-2,4-dihydro-[1,2,4]triazolo[4,3-a]quinazolin-5(1H)-one]
induction of mitotic arrest (rounded cells with apoptotic or aberrant chromosome morphologies) (HeLa cells): lacked a detectable level of cellular response

CCCn1c(=O)c2cc(F)ccc2n2c(SC)nnc12 [compound 144, 7-fluoro-1-(methylthio)-4-propyl-[1,2,4]triazolo[4,3-a]quinazolin-5(4H)-one]
induction of mitotic arrest (rounded cells with apoptotic or aberrant chromosome morphologies) (HeLa cells): induced mitotic arrest but at a somewhat reduced level
half-life [2]: 0.241 h
half-life [3]: 0.176 h
half-life [4]: 0.439 h
half-life [5]: > 2 h
half-life [6]: > 2 h
half-life (Stability in rat cytosol): > 2 h
